The subject of this experiment is SK-BR-3 cells. Kind of experiment: Inhibition of proliferation, MTT assay. Format: cell-based, human. The settings on record: 20 nM, positive control. Background: Tetrazolium assays rely on reduction of a dye to a coloured formazan, in cell work by metabolically active cells.

Method: The MTT assay is a non-radioactive assay based on the cleavage of the soluble yellow tetrazolium salt MTT (3-[4,5-Dimethylthiazol-2-yl]-2,5-diphenyltetrazolium bromide; Thiazolyl Blue) by mitochondrial dehydrogenases of viable cells. […] The absorbance signal is a direct measure for viable cells in the culture.
Human IgG1 or medium alone served as negative controls. Briefly, SK-BR-3 cells were grown for 2 days in 96-well flat bottom plates. […] The supernatant was completely removed and MTT was added. Cells were incubated for 2 hours with MTT at 37° C. in a humidified CO2 incubator. The supernatant was removed and cells were lysed using HCI and 2-propanol containing lysis buffer for 1 h at room temperature in the dark. Absorbance at 570 nm/630 nm was measured in a plate reader Infinite F200 (Tecan Austria GmbH).
Proliferation after 4 days of incubation with the antibodies was calculated relative to the proliferation in the medium control.

For `CC(=O)O[C@H]1C(=O)[C@@]2(C)[C@H]([C@H](OC(=O)c3ccccc3)[C@]3(O)C[C@H](OC(=O)[C@H](O)[C@@H](NC(=O)c4ccccc4)c4ccccc4)C(C)=C1C3(C)C)[C@]1(OC(C)=O)CO[C@@H]1C[C@@H]2O` [Taxol], the “proliferation compared to the medium control” value stood at 6%.

(Values after US20180028680A1, “GLYCOOPTIMIZED ANTIBODY DRUG CONJUGATES” (GLYCOTOPE GMBH, priority 2015, published 2018).)
